Measured values taken from BindingDB's records for PubMed 32771797 (Southern Medical University, 2020).

Experiment: Inhibition of Severe acute respiratory syndrome coronavirus 2 MPro incubated for 24 hrs by plaque assay

For `O=C[C@H](C[C@@H]1CCNC1=O)NC(=O)[C@H](Cc1cccc(F)c1)NC(=O)c1cc2ccccc2[nH]1` [med.21724, Compound 62], the EC50 was 720 nM.
